Columns and labels:
Type in all cases: in vivo, mouse
mdx mice [1] = assay: Myriocin treatment of mdx mice (Duchenne muscular dystrophy model)
Experimental: Next the activity of sphingolipid synthesis was inhibited in a mouse model of Duchenne muscular dystrophy. Mdx, a dystrophin deficient mouse model, was treated with myriocin (0.4 mg/kg/3 times a week intraperitoneally) for 2 months. […] Furthermore, after downhill running, plasma levels of creatine kinase (CK) were lower in myriocin treated mice compared to controls (FIG. 8f).
Endurance running test. The exercise regimen on a treadmill commenced at a speed of 9 cm/s. As the mice were aged, an inclination of 0 degrees was used. Mice were considered to be exhausted, and removed from the treadmill if they received 7 or more shocks (0.2 mA) per minute for two consecutive minutes. The distance traveled and time before exhaustion were registered as maximal running distance and time.
Grip strength. Muscle strength was assessed by grip strength test. The grip strength of each mouse was measured on a pulldown grid assembly connected to a grip strength meter (Columbus Instruments). The mouse was drawn along a straight line parallel to the grip, providing peak force. The experiment was repeated three times, and the highest value was included in the analysis.
Rotarod test. The rotarod test measures muscle strength, coordination, and endurance. Mice were left undisturbed in the room for 30 min. The speed of the rotating cylinder (rotarod) increased from 0 to 40 rpm in 5 min. Each mouse had 3 trials per day for 3 consecutive days. The latency and speed the mouse reached it passive rotation or fall from the rotor was recorded, and the latency and speed of the best trial of the second day is presented.

aged C57Bl/6JRj mice = assay: Oral glucose tolerance test in aged mice; conditions: aged chow-fed myriocin treated mice
Excerpt: Frailty is associated with multimorbidity, including diabetes.

[2] = test system: muscle stem cells (MuSCs); assay: MuSC count in muscle of treated aged mice (FACS, PAX7 immunostaining)
Excerpt: Muscle stem cells (MuSCs) are capable of giving rise to mature muscle fibers, and their regenerative capacity has been reported to be impaired upon aging. […] Consistent with this, PAX7 expression correlated negatively with the first PC of the ceramide synthetic pathway in both human (FIG. 3e) and mouse (FIG. 3f) skeletal muscle. To study whether increased Pax7 transcript abundance in skeletal muscle reflects elevated MuSC count, a7 integrin/CD34 double positive cells were isolated from the hind-limbs using fluorescence-activated cell sorting (FACS).
Stem cell isolation. Gastrocnemius, soleus, and quadriceps muscles from both hindlimbs were excised and transferred into PBS on ice. […] Stained cells were analyzed and sorted using the FACSAria II instrument (BD Biosciences). […]
Histology. […] Microscopy images of fluorescence from muscle fibers were analyzed using the ImageJ software. Centralized nuclei percent, minimal Feret diameter and cross-sectional area in TA muscles were determined using the ImageJ software quantification of laminin, dystrophin, and DAPI-stained muscle images from VS120-S6-W slides scanner (Olympus). […] The mean cross-sectional area of muscle fibers was calculated as the average cross-sectional area of 2,000 fibers per from sample. 7-8 mouse samples per condition were used for histological quantification of donor mice. […] For each quantification, 3 or more mice were used.

mdx mice [3] = assay: Transplantation of MuSCs from myriocin treated donors into cardiotoxin-injured mdx recipients
Excerpt: Decline in tissue regenerative potential is a major hallmark of mammalian aging, including skeletal muscle. It was next asked the question whether myriocin treatment induces functional improvement of MuSCs, boosting their regenerative capacity. MuSCs from aged mice treated or untreated with myriocin for 5 months were isolated, and transplanted into tibialis anterior (TA) muscles of recipient mice. The recipient mice were either aged (20-month-old) C57Bl/6JRj or aged (1-year-old) mdx mice, a mouse model of Duchenne muscular dystrophy lacking dystrophin protein (FIG. 4a). Before MuSC transplantation, injury was induced by cardiotoxin injection to TA of all recipient mice. […] At both 7 and 14 days after transplantation the inflammatory area was also smaller (FIG. 12a-b) in mdx recipients of MuSCs isolated from myriocin treated mice. […] Thus, transplantation of MuSCs derived from myriocin treated donors induce major morphological improvements following cardiotoxin-induced muscle injury.
Cardiotoxin-induced muscle damage and MuSC transplantation. […]
Histology. […] Microscopy images of fluorescence from muscle fibers were analyzed using the ImageJ software. Centralized nuclei percent, minimal Feret diameter and cross-sectional area in TA muscles were determined using the ImageJ software quantification of laminin, dystrophin, and DAPI-stained muscle images from VS120-S6-W slides scanner (Olympus). […] The mean cross-sectional area of muscle fibers was calculated as the average cross-sectional area of 2,000 fibers per from sample. 7-8 mouse samples per condition were used for histological quantification of donor mice. The eMyHC quantification is expressed as proportion of eMyHC positive signal over total TA cross sectional area. Following MuSC injection in CTX injected recipient mice, inflammation representing the regenerative stage of muscle was quantified by ImageJ software as proportion of inflammatory area over total area of the TA muscle cross section. The PAX7-positive cells were quantified as the average number of cells per field of more than 30 randomly chosen fields from a mouse TA. […]

[4] = myriocin 0.4 mg/kg 3 times a week intraperitoneally, 2 months

CCCCCCC(=O)CCCCCCC=CCC(O)C(O)C(N)(CO)C(=O)O (stereo not shown) [myriocin, 2-Amino-3,4-dihydroxy-2-(hydroxymethyl)-14-oxoicos-6-enoic acid]
plasma levels of creatine kinase (CK) (mdx mice [1]; after downhill running, myriocin 2 months vs controls): lower
grip strength (mdx mice [1]; [4]): improved
performance in rotarod test (mdx mice [1]; [4]): improved performance
performance in uphill running test (mdx mice [1]; [4]): improved performance
glucose tolerance (aged C57Bl/6JRj mice): improved
number of PAX7+ muscle cells in TA tissue sections ([2]; aged myriocin treated mice): elevated number
number of MuSCs in hindlimbs (a7 integrin/CD34 double positive cells, FACS) ([2]; young, aged, and aged myriocin treated mice): restored the MuSC pool of aged mice close to that of young mice
inflammatory area of TA (mdx mice [3]; 7 and 14 days after transplantation): smaller
count of PAX7+ cells in TA (mdx mice [3]; 7 days after transplantation): elevated count
myogenesis of dystrophin-positive fibers (mdx mice [3]; 7 days after transplantation): stimulated myogenesis

From US20220288004A1, “TREATMENT AND PREVENTION OF AGING RELATED-DISEASE AND/OR AGING BY THE INHIBITION OF SPHINGOLIPIDS” (ECOLE POLYTECHNIQUE FEDERALE DE LAUSANNE (EPFL), priority 2019, published 2022)
